# Source: patent US7691825B2, “Adenosine A2B receptor agonists” (King Pharmaceuticals Research and Development, Inc., priority 2006, dated 2010)
# Where two headings read alike, the source gives them in different places.
# Key:
# [1] = biological target: T1, hA2A receptors expressed in CHO cells (Homo sapiens, UniProt P29274); test: [3H]CGS21680 binding hA2A CHO cells; details: [3H]-CGS 21680, hA2A CHO cell membranes, 180 min at 25° C.; mean ± s.e. mean
# T1 construct: expressed in transfected cells; host or cells: CHO cells (stably transfected, per Klotz et al. 1998); membrane preparation
# T1 sequence (P29274 whole entry): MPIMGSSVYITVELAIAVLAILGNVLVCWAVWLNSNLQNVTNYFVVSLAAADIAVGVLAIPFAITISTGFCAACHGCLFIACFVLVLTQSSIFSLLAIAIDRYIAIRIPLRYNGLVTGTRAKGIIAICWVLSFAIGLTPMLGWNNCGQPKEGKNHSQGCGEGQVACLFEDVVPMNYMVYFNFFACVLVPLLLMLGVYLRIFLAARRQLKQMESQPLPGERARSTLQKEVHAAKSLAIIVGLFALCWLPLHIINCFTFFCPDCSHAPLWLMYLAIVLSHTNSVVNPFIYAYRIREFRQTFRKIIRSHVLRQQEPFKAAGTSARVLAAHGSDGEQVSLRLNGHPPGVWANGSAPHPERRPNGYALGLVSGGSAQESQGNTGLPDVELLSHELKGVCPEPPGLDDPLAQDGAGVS
# Description: (§2) The cells are grown adherently and maintained in Dulbecco's Modified Eagles Medium with nutrient mixture F12 (DMEM/F12) without nucleosides, containing 10% fetal calf serum, penicillin (100 U/mL), streptomycin (100 μg/mL), L-glutamine (2 mM) and Geneticin (G418, 0.2 mg/mL) at 37° C. in 5% CO2/95% air. […] For membrane preparation the culture medium is removed and the cells are washed with PBS and scraped off T75 flasks in ice-cold hypotonic buffer (5 mM Tris HCl, 2 mM EDTA, pH 7.4). The cell suspension is homogenized and centrifuged for 30 min at 100,000×g. The membrane pellet is re-suspended in 50 mM Tris HCl buffer pH 7.4 and incubated with 2 UI/mL of adenosine deaminase for 30 min at 37° C.
# (§3) Binding of 1 nM [^3H]—CHA to hA1CHO cells (50 μg of protein/assay) is performed using 50 mM Tris HCl buffer pH 7.4 and at least 6-8 different concentrations of agonists studied for an incubation time of 150 min at 25° C. […] Non-specific binding is determined in the presence of 10 μM of CHA and is about 20% of the total binding. […] Filter bound radioactivity is measured by scintillation spectrometry after addition of 5 mL of Aquassure.
# (§4) All experimental data are expressed as the mean±standard error of the mean (s.e. mean) of three or four independent experiments performed in duplicate.
# [2] = biological target: T2, hA2B receptors expressed in CHO cells (Homo sapiens, UniProt P29275); test: cAMP assay hA2B CHO cells; format: cell-based; details: for EC50: stimulation of cAMP levels, hA2B CHO cells, mean ± s.e. mean; for Selectivity hA1/hA2B: ratio hA1 Ki / hA2B EC50; for Selectivity hA2A/hA2B: ratio hA2A Ki / hA2B EC50; for Selectivity hA3/hA2B: ratio hA3 IC50 / hA2B EC50
# T2 construct: expressed in transfected cells; host or cells: CHO cells
# T2 sequence (P29275 1-332): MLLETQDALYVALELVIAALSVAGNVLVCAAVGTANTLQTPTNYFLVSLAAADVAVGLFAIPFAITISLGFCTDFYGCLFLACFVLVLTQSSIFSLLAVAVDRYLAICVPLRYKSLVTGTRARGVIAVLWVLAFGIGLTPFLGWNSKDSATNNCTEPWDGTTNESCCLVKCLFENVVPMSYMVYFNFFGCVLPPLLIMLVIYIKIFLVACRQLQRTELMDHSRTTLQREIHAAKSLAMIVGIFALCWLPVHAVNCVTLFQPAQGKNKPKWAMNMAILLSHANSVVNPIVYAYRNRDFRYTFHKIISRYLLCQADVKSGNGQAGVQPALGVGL
# Description: The effects of the tested compounds may be evaluated in functional assays measuring the stimulatory capability of the ligands to increase cAMP levels in hA2B receptors expressed in CHO cells. This may done as described by Pastorin et al. in “Pyrazolo[4,3-e]-1,2,4-triazolo[1,5-c]pyrimidine derivatives as adenosine receptor antagonists.
# (§1) For cell preparation CHO cells transfected with human A2B or A3 receptors are washed with phosphate-buffered saline and diluted trypsin, and centrifuged for 10 min at 200 g. […] After the preincubation time at 37° C., the examined ligands (1 nM-10 μM) are added to the mixture and incubated for a further 5 min. The reaction is terminated by the addition of cold 6% trichloroacetic acid (TCA). The TCA suspension is centrifuged at 2000 g for 10 min at 4° C. and the supernatant is extracted four times with water saturated diethyl ether. […] Samples of cyclic AMP standard (0-10 pmoles) are added to each test tube containing the incubation buffer (trizma base 0.1 mM, aminophylline 8.0 mM, 2-mercaptoethanol 6.0 mM, pH 7.4) and [^3H]cyclic AMP in total volume of 0.5 mL. The binding protein previously incubated at 4° C. for 150 min, and after the addition of charcoal is centrifuged at 2000 g for 10 min. The clear supernatant is counted in a Beckman scintillation counter.
# [3] = biological target: T3, human A3 receptors in CHO cells (Homo sapiens, UniProt P0DMS8); test: cAMP assay hA3 CHO cells; format: cell-based; details: cyclic AMP assay, mean ± s.e. mean
# T3 construct: expressed in transfected cells; host or cells: CHO cells
# T3 sequence (P0DMS8 1-318): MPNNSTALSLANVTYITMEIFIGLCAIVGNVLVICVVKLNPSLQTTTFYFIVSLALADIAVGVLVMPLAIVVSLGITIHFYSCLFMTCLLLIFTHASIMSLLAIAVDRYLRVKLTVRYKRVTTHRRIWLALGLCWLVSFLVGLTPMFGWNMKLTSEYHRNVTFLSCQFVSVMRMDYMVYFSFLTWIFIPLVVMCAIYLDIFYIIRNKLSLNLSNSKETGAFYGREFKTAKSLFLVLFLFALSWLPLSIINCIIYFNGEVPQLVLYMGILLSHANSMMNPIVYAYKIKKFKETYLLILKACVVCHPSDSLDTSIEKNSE
# Description: as §1
# [4] = biological target: T4, hA1 receptors expressed in CHO cells (Homo sapiens, UniProt P30542); test: [3H]CHA binding hA1 CHO cells
# T4 sequence (P30542 1-326): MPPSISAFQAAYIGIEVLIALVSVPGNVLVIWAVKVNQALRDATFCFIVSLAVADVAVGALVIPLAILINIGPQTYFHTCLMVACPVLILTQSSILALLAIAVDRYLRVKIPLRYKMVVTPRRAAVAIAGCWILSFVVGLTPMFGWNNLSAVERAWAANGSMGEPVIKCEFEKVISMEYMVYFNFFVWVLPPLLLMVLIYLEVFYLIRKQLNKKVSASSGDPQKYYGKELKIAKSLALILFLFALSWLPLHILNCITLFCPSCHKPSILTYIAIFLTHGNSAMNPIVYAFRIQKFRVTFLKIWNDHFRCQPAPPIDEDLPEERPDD
# Description: as §2, §3, §4
# [5] = read-out: [3H]CHA binding hA1 CHO cells Ki, 1 nM [3H]-CHA, hA1 CHO cell membranes, 150 min at 25° C., mean ± s.e. mean
structure (smiles),measurement,setting,value
"CCNC(=O)[C@H]1O[C@@H](n2cnc3c(NNC(=O)c4ccccc4)nc(Cl)nc32)[C@H](O)[C@@H]1O [Compound 17b, (2S, 3S, 4R, 5R)-5-[6{N′-Benzoyl-hydrazino)-2-chloro-9H-purin-9-yl}-3,4-dihydroxy-tetrahydrofuran-2-carboxylic acid ethylamide]",Ki,[1],> 1000 nM
same,EC50,[2],> 1000 nM
same,IC50,[3],> 1000 nM
same,melting point,,253 to 254 °C
same,Ki,[4],> 1000 nM
"CCNC(=O)[C@H]1O[C@@H](n2cnc3c(NNC(=O)c4ccco4)nc(Cl)nc32)[C@H](O)[C@@H]1O [Compound 18b, (2S, 3S, 4R, 5R)-5-{2-Chloro-6-[N′-(furan-2-carbonyl)-hydrazino]-9H-purin-9-yl}-3,4-dihydroxy-tetrahydrofuran-2-carboxylic acid ethylamide]",Ki,[1],> 1000 nM
same,Selectivity hA1/hA2B,[2],>4.76
same,Selectivity hA2A/hA2B,[2],>4.76
same,Selectivity hA3/hA2B,[2],>4.76
same,EC50,[2],210 ± 13 nM
same,IC50,[3],> 1000 nM
same,melting point,,269 to 270 °C
same,Ki,[4],> 1000 nM
"CCNC(=O)[C@H]1O[C@@H](n2cnc3c(NNC(=O)c4ccc(C)s4)nc(Cl)nc32)[C@H](O)[C@@H]1O [Compound 19b, (2S, 3S, 4R, 5R)-5-{2-Chloro-6-[N′-(5-methyl-thiophene-2-carbonyl)-hydrazino]-9H-purin-9-yl}-3,4-dihydroxy-tetrahydrofuran-2-carboxylic acid ethylamide]",Ki,[1],> 1000 nM
same,Selectivity hA1/hA2B,[2],>5.71
same,Selectivity hA2A/hA2B,[2],>5.71
same,Selectivity hA3/hA2B,[2],>5.71
same,EC50,[2],175 ± 20 nM
same,IC50,[3],> 1000 nM
same,melting point,,156 °C
same,Ki,[4],> 1000 nM
"CCNC(=O)[C@H]1O[C@@H](n2cnc3c(NNC(=O)Cc4cccs4)nc(Cl)nc32)[C@H](O)[C@@H]1O [Compound 20b, (2S, 3S, 4R, 5R)-5-{2-Chloro-6-[N′-(2-thiophene-2-yl-acetyl)-hydrazino]-9H-purin-9-yl}-3,4-dihydroxy-tetrahydrofuran-2-carboxylic acid ethylamide]",Ki,[1],633 ± 60 nM
same,Selectivity hA1/hA2B,[2],0.10
same,Selectivity hA2A/hA2B,[2],1.05
same,Selectivity hA3/hA2B,[2],0.11
same,EC50,[2],603 ± 31 nM
same,IC50,[3],67 ± 4 nM
same,melting point,,153 to 154 °C
same,Ki,[4]; [5],62 ± 4 nM
"CCNC(=O)[C@H]1O[C@@H](n2cnc3c(NNC(=O)c4ccsc4)nc(Cl)nc32)[C@H](O)[C@@H]1O [Compound 21b, (2S, 3S, 4R, 5R)-5-{2-Chloro-6-[N′-(thiophene-3-carbonyl)-hydrazino]-9H-purin-9-yl}-3,4-dihydroxy-tetrahydrofuran-2-carboxylic acid ethylamide]",Ki,[1],> 1000 nM
same,Selectivity hA1/hA2B,[2],2.07
same,Selectivity hA2A/hA2B,[2],>2.22
same,Selectivity hA3/hA2B,[2],>2.22
same,EC50,[2],450 ± 29 nM
same,IC50,[3],> 1000 nM
same,melting point,,249 to 250 °C
same,Ki,[4]; [5],933 ± 76 nM
"CCNC(=O)[C@H]1O[C@@H](n2cnc3c(NNC(=O)c4cccs4)nc(Cl)nc32)[C@H](O)[C@@H]1O [Compound 22b, (2S, 3S, 4R, 5R)-5-{2-Chloro-6-[N′-(thiophene-2-carbonyl)-hydrazino]-9H-purin-9-yl}3,4-dihydroxy-tetrahydrofuran-2-carboxylic acid ethylamide]",Ki,[1],> 1000 nM
same,Selectivity hA1/hA2B,[2],3.68
same,Selectivity hA2A/hA2B,[2],>5.00
same,Selectivity hA3/hA2B,[2],>5.00
same,EC50,[2],200 ± 20 nM
same,IC50,[3],> 1000 nM
same,melting point,,189 to 190 °C
same,Ki,[4]; [5],737 ± 76 nM
CCNC(=O)[C@H]1O[C@@H](n2cnc3c(NNC(=O)c4sccc4C)nc(Cl)nc32)[C@H](O)[C@@H]1O [Compound 23b],Ki,[1],> 1000 nM
same,Selectivity hA1/hA2B,[2],>2.94
same,Selectivity hA2A/hA2B,[2],>2.94
same,Selectivity hA3/hA2B,[2],>2.94
same,EC50,[2],340 ± 35 nM
same,IC50,[3],> 1000 nM
same,melting point,,160 to 161 °C
same,Ki,[4],> 1000 nM
"CCNC(=O)[C@H]1O[C@@H](n2cnc3c(NNC(=O)c4ccc[nH]4)nc(Cl)nc32)[C@H](O)[C@@H]1O [Compound 24b, (2S, 3S, 4R, 5R)-5-{2-Chloro-6-[N′-(1H-pyrrole-2-carbonyl)-hydrazino]-9H-purin-9-yl}-3,4-dihydroxy-tetrahydrofuran-2-carboxylic acid ethylamide]",Ki,[1],> 1000 nM
same,Selectivity hA1/hA2B,[2],1.70
same,Selectivity hA2A/hA2B,[2],>2.78
same,Selectivity hA3/hA2B,[2],>2.78
same,EC50,[2],359 ± 36 nM
same,IC50,[3],> 1000 nM
same,melting point,,230 to 231 °C
same,Ki,[4]; [5],610 ± 32 nM
"CCNC(=O)[C@H]1O[C@@H](n2cnc3c(NNC(=O)c4cc(C)on4)nc(Cl)nc32)[C@H](O)[C@@H]1O [Compound 25b, (2S, 3S, 4R, 5R)-5-{2-Chloro-6-[N′-(5-methyl-isoxazole-3-carbonyl)-hydrazino]-9H-purin-9-yl}-3,4-dihydroxy-tetrahydrofuran-2-carboxylic acid ethylamide]",Ki,[1],> 1000 nM
same,EC50,[2],> 1000 nM
same,IC50,[3],> 1000 nM
same,melting point,,182 to 183 °C
same,Ki,[4],> 1000 nM
"CCNC(=O)[C@H]1O[C@@H](n2cnc3c(NNC(=O)c4cc(-c5ccccc5)on4)nc(Cl)nc32)[C@H](O)[C@@H]1O [Compound 26b, (2S, 3S, 4R, 5R)-5-{2-Chloro-6-[N′-(5-phenyl-isoxazole-3-carbonyl)-hydrazino]-9H-purin-9-yl}-3,4-dihydroxy-tetrahydrofuran-2-carboxylic acid ethylamide]",Ki,[1],> 1000 nM
same,EC50,[2],> 1000 nM
same,IC50,[3],> 1000 nM
same,melting point,,169 to 170 °C
same,Ki,[4],> 1000 nM
